The structures appear in SMILES notation. A value given as a limit tells only on which side of the number the result lay.

From ChEMBL document CHEMBL5131408, “Novel O-acylated amidoximes and substituted 1,2,4-oxadiazoles synthesised from (+)-ketopinic acid possessing potent virus-inhibiting activity against phylogenetically distinct influenza A viruses” (Bioorg Med Chem Lett, 2022) come the findings set out here.

Data set [1] has as its system Influenza A virus. The data set is described as follows: Antiviral activity against Influenza A virus A/Puerto Rico/8/34 (H1N1) infected in MDCK cells assessed as inhibition of viral replication. It is filed as functional, organism-based.
Data set [2] in a line: Cytotoxicity against MDCK cells infected with Influenza A virus A/Puerto Rico/8/34 (H1N1) assessed as reduction in cell viability. It is filed as toxicity, cell-based, Canis lupus familiaris. The note with it: dog.
Data set [3] can be described thus: Selectivity index, ratio of CC50 for cytotoxicity against MDCK cells infected with Influenza A virus A/Puerto Rico/8/34 (H1N1) to IC50 for antiviral activity against Influenza A virus A/Puerto Rico/8/34 (H1N1) infected in MDCK cells. It is filed as toxicity, cell-based. The note with it: dog; read-out: Ratio CC50/IC50.
Data set [4] has as its system Influenza A virus. The data set is described as follows: Antiviral activity against Influenza A virus A/Anhui/1/2013 (H7N9) infected in MDCK cells assessed as inhibition of viral replication. It is filed as functional, organism-based.
The nature of data set [5]: Cytotoxicity against MDCK cells infected with Influenza A virus A/Anhui/1/2013 (H7N9) assessed as reduction in cell viability. It is filed as toxicity, cell-based, Canis lupus familiaris. The conditions noted are these: dog.
A short description of data set [6]: Selectivity index, ratio of CC50 for cytotoxicity against MDCK cells infected with Influenza A virus A/Anhui/1/2013 (H7N9) to IC50 for antiviral activity against Influenza A virus A/Anhui/1/2013 (H7N9) infected in MDCK cells. It is filed as toxicity, cell-based. The note with it: dog; read-out: Ratio CC50/IC50.
The test system of data set [7] is Influenza A virus. The data set is described as follows: Anti-membranotropic activity in Influenza A virus A/Puerto Rico/8/34 (H1N1) infected in chicken erythrocytes assessed as inhibition of hemagglutinin-driven membrane disruption incubated for 30 mins followed by infection in chicken erythrocytes. It is filed as functional, organism-based. The conditions noted are these: Erythrocyte, DDE = dose-dependent effect.

On to `CC1(C)[C@@H]2CC[C@@]1(c1nc(Cc3cccc(F)c3)no1)C(=O)C2`, for which the IC50 in data set [1] is 7 µM; in data set [4], above 105 µM. Besides, the CC50 in data set [2] came to 411 µM; in data set [5] it was 344 µM. Further, the figures for the selectivity ratio in data set [3] and in data set [6] were 56 and 3, respectively. Also, in data set [7], the Activity result was “Dde”.
Consider `CC1(C)[C@@H]2CC[C@@]1(c1nc(-c3cccnc3)no1)C(=O)C2`, for which the values for the IC50 in data set [1] and in data set [4] were 13 µM and above 1060 µM, respectively. Further, the results for the half-maximal cytotoxic concentration (CC50) in data set [2] and in data set [5] were above 1060 µM and 1060 µM, respectively. The selectivity ratio in data set [3] was above 79; in data set [6], 1. The Activity entry in data set [7] is “Dde”.

As a reminder, the IC50 is the midpoint of a concentration-inhibition curve. What is called CC50 is the concentration that lowers cell viability or growth by half.
